Test results published in patent US20220243211A1, “PEPTIDE NUCLEIC ACID COMPOSITIONS WITH MODIFIED HOOGSTEEN BINDING SEGMENTS AND METHODS OF USE THEREOF” (Yale University, priority 2019, published 2022).

What was measured:
human CFBE cells = experiment: MQAE cAMP-stimulated chloride efflux assay; assay type: cell-based
Excerpt: FIG. 3 is a bar graph showing chloride efflux measured using fluorescent indicator dye N-[ethoxycarbonylmethyl]-6-methoxy-quinolinium bromide (MQAE), in untreated human CFBE cells and those treated with NPs, and those treated with blank particles. One way ANOVA with multiple comparisons was used to analyze chloride efflux in untreated CF cells, blank particle treated CF cells, PNA/DNA particle treated cells and normal human bronchial epithelial cells (16HBE14o-).
CFBE cells (CFBE41o-) and human bronchial epithelial cells (16HBE14o-) (Gruenert, et al., J Cyst Fibros 3 Suppl 2, 191-196 (2004)) were grown with EMEM (Corning) with 10% FBS, 20 mM L-glutamine, and Pen/Strep. Once grown to confluence, cells were trypsinized by first washing with PBS, then adding 0.25% trypsin for 5 minutes, and harvesting with culture media. Once grown to confluence, cells were trypsinized by first washing with 0.05% trypsin, then adding 0.25% trypsin for 5 minutes, and harvesting with RPMI medium with 10% FBS. Cells were frozen in 5% DMSO in culture medium as necessary. NPs were suspended in culture media by vigorous vortexing and water sonication, then added directly to cells at concentrations of 2 mg/mL×10^6 cells (corresponding to approximately 10^9 PNA/DNA molecules delivered to each cell assuming 100% efficiency).
Glass coverslips (22×50 mm) were sterilized by dipping in 70% EtOH and were subsequently placed in 60 mm cell culture dishes (3 per dish.) The plates were exposed to UV irradiation overnight. Cells (˜1×10^6) were seeded in the dish and the cells grew to confluence in MEM media containing 10% FBS, L-glutamine, and pen/strep. At least 12 hours before the experiment, the cells were fed with MEM media containing 5% FBS, L-glutamine, and pen/strep. The experiment was run as previously described (Shenoy, et al., Pediatric research 70, 447-452 (2011)). Briefly, cells were incubated with N-[ethoxycarbonylmethyl]-6-methoxy-quinolinium bromide (MQAE, Invitrogen) in DMSO (100 uL, 30 mM suspended in HEPES Cl solution) for 30 minutes at 37° C. […] MQAE was excited at 354±10 nm and the emitted fluorescence of at least 20 cells was measured at 460±10 nm every five seconds for two minutes. […] The rate of change in MQAE fluorescence (Δarbitrary fluorescence units/sec) was used to calculate Cl^− efflux.
To compare the activity of unmodified (classic) and γPNA treatments on gene editing in human CFBE cells, the cells were treated with either PLGA NPs containing no PNA/mismatched donor DNA (referred to as blank NP), PLGA NPs containing hCF-PNA/donor DNA, PBAE/PLGA/MPG NPs containing hCF-PNA/donor DNA and PBAE/PLGA/MPG NPs containing γhCF-PNA-h/donor DNA. After treatment of the cells, cAMP-stimulated chloride efflux was quantified using the MQAE assay (McNeer, et al., Nat Commun 6, 6952 (2015)). […]

[1] = test system: F508 del CFTR in CFBE cells at ALI; experiment: Digital droplet PCR quantification of gene editing; assay type: cell-based, human; settings: apical PNA/DNA NPs, 2 mg/dose, 3 doses
Method: FIG. 5A is a Schematic of treatment of cells grown at ALI. FIG. 5B is a bar graph showing Ussing Chamber assay results. CFBE cells at ALI were treated apically at 2 mg/dose for 3 doses with 48 hours between each dose **p<0.001; ***p<0.002. FIG. 5C is a dot plot showing digital droplet (ddPCR) quantification of gene editing in genomic DNA isolated from CFBE cells at ALI treated apically at 2 mg/dose for 3 doses with 48 hours between each dose ***p<0.002.
Nanoparticles were suspended in culture media, vortexted, and sonicated in a water bath (30s) and added directly to cells. For cells treated on collagen-coated plastic in 12-well plates, the cells were treated at a concentration of 2 mg/mL. For cells treated in 6-well plates at ALI, the cells were treated apically with 250 uL of media containing 2 mg of particles. […]
gDNA was extracted from CFBE cells using the Wizard SV DNA Purification System (Promega, Madison, Wis.) according to manufacturer's instructions. The concentration of extracted gDNA samples was measured using a QuBit® dsDNA BR assay kit (Invitrogen, Carlsbad, Calif.) according to manufacturer's instructions. […] Droplets were allowed to rest at 4° C. for at least 30 minutes after cycling and were then read using the QX200™ Droplet Reader (Bio-Rad). Data were analyzed using QuantaSoft™ software. […]

[2] = PBAE/PLGA/MPG NPs with PNA/donor DNA

| Substance | chloride efflux (human CFBE cells; [2]) | chloride efflux (human CFBE cells; PLGA NPs with PNA/donor DNA) | gene editing (ddPCR, fractional abundance of edited CFTR allele) [1] | chloride efflux compared to untreated cells or blank NPs (human CFBE cells; [2]) [fold] |
| --- | --- | --- | --- | --- |
| H-KKK-TJTJJTTT-OOO-TTTCCTCTATGGGTAAG-KKK-NH2 [hCF PNA] (TNTNNTTTTTTCCTCTATGGGTAAG; listed as DNA, chemistry not fully specified) | further enhanced | marked increase in chloride efflux | minimal correction | – |
| H-KKK-TJTJJTTT-OOO-TTTCCTCTATGGGTAAG-KKK-NH2 [γhCF PNA-h] (TNTNNTTTTTTCCTCTATGGGTAAG; listed as DNA, chemistry not fully specified) [tail clamp PNA targeting human CFTR gene with MPγ monomers in Hoogsteen domain] | no different than non-CF affected HBE cells | – | −5% | 7 |
